According to patent US6376497B1, “Antifungal azole derivatives having a fluorinated vinyl group and process for preparing same” (Korea Research Institute of Chemical Technology, priority 1999, dated 2002):
Blank lines part the entries; values can stand above or below the molecule they belong to.

What was measured:
Assay in all cases: In vitro antifungal activity, microbroth dilution MIC
Format in all cases: cell-based
[1] = system: Aspergillus furnigatus B. 19119; conditions: A furnigatus B. 19119, RPMI-1640, 35° C., 4 to 48 hours
Experimental: (§1) In vitro antifungal activities of the inventive antifungal compounds were evaluated using the test strains shown in Table VIII by the following microbroth dilution method which is a modified version of the procedure recommended by National Committee for Clinical Laboratory Standards(see National Committee for Clinical Laboratory Standards, 1992, Reference methods for broth dilution antifungal susceptibility testing of yeasts, Proposed standard M27-P, National Committee for clinical laboratory standards, Villanova, Pa; and National Committee for Clinical Laboratory Standards, 1995, Reference methods for broth dilution antifungal susceptibility testing of yeasts. Tentative standard M27-T, National Committee for clinical laboratory standards, Villanova, Pa).
(§2) Sabourad Dextrose Agar(Difco) was used as a culture medium, and RPMI-1640 broth(Sigma. Co. w/L-glutamine, wo/NaHCO3)(0.165 M MOPS, pH 7.0), as a dilution medium.
(§3) Each of the test strains were subcultured in Sabourad Dextrose Agar medium twice and a stain sample was taken from prominent colonies and suspended in sterile physiological saline solution in a cap tube. The turbidity of the suspension was adjusted to that of the Mcfarland 0.5 standard sample(approximately 10^6 CFU/ml). Then the suspension was diluted 500-fold with sterile RPMI-1640 liquid medium to 2×10^3 CFU/ml.
(§4) Each of the test compounds(the compounds obtained in Examples 1 to 150 and comparative compounds, i.e., fluconazole(FCZ) and itraconazole (ICZ)), was dissolved in DMSO to give a stock solution having a concentration of 4000 μg/ml and the stock solution was successively diluted to obtain test solutions having test compound concentrations of 200, 100, 50, 25, 12.5, 6.25, 3.13, 1.56, 0.78, 0.39, 0.20 and 0.10 μg/ml, respectively.
(§5) 0.1 ml portion of the test solutions were added to the wells of a sterile 96 well plate. Then, 0.1 ml portion of each of the test strain solutions were added successively to the wells and the plate was incubated at 35° C. for 4 to 48 hours.
(§6) Minimal inhibitory concentration(MIC) of each compound was defined as the concentration of the test compound where no growth of the strain could be observed.

[2] = system: Aspergillus niger A. 16404; conditions: A. niger A. 16404, RPMI-1640, 35° C., 4 to 48 hours
Experimental: as §1, §2, §3, §4, §5, §6

[3] = system: Candida albicans A. 10231; conditions: C. albicans A. 10231, RPMI-1640, 35° C., 4 to 48 hours
Experimental: as §1, §2, §3, §4, §5, §6

[4] = system: Candida albicans C1-2; conditions: C. albicans C1-2, RPMI-1640, 35° C., 4 to 48 hours
Experimental: as §1, §2, §3, §4, §5, §6

[5] = system: Candida albicans IFO. 1385; conditions: C. albicans IFO. 1385, RPMI-1640, 35° C., 4 to 48 hours
Experimental: as §1, §2, §3, §4, §5, §6

[6] = system: Candida krusei K. 11655; conditions: C. krusei K. 11655, RPMI-1640, 35° C., 4 to 48 hours
Experimental: as §1, §2, §3, §4, §5, §6

[7] = system: Candida parapsitosis A. 7330; conditions: C. parapsitosis A. 7330, RPMI-1640, 35° C., 4 to 48 hours
Experimental: as §1, §2, §3, §4, §5, §6

[8] = system: Candida pseudotropicalis K. 11658; conditions: C. pseudotropicalis K. 11658, RPMI-1640, 35° C., 4 to 48 hours
Experimental: as §1, §2, §3, §4, §5, §6

[9] = system: Candida tropicalis A. 13803; conditions: C. tropicalis A. 13803, RPMI-1640, 35° C., 4 to 48 hours
Experimental: as §1, §2, §3, §4, §5, §6

[10] = system: Cryptococcus neoformans A. 34144; conditions: Cry. neoformans A. 34144, RPMI-1640, 35° C., 4 to 48 hours
Experimental: as §1, §2, §3, §4, §5, §6

[11] = system: Cryptococcus neoformans B. 42419; conditions: Cry. neoformans B. 42419, RPMI-1640, 35° C., 4 to 48 hours
Experimental: as §1, §2, §3, §4, §5, §6

[12] = system: Cryptococcus neoformans IFM. 40092; conditions: Cry. neoformans IFM. 40092, RPMI-1640, 35° C., 4 to 48 hours
Experimental: as §1, §2, §3, §4, §5, §6

[13] = system: Torulopsis glabrata B. 16205; conditions: T. glabrata B. 16205, RPMI-1640, 35° C., 4 to 48 hours
Experimental: as §1, §2, §3, §4, §5, §6

[14] = system: Trichophyton mentagrophytes A. 9129; conditions: T. mentagrophytes A. 9129, RPMI-1640, 35° C., 4 to 48 hours
Experimental: as §1, §2, §3, §4, §5, §6

[15] = system: Trichophyton mentagrophytes B. 32663; conditions: T. mentagrophytes B. 32663, RPMI-1640, 35° C., 4 to 48 hours
Experimental: as §1, §2, §3, §4, §5, §6

Structure (SMILES): Cc1cccc(C=C(F)OCC2COC(Cn3ccnc3)(c3ccc(F)cc3F)O2)c1 (mixture of isomers) [Ex. 37]
Minimal inhibitory concentration (MIC) [1]: >100 µg/mL | Minimal inhibitory concentration (MIC) [2]: >100 µg/mL | Minimal inhibitory concentration (MIC) [3]: 25.0 µg/mL | Minimal inhibitory concentration (MIC) [4]: 25.0 µg/mL | Minimal inhibitory concentration (MIC) [5]: 3.13 µg/mL | Minimal inhibitory concentration (MIC) [6]: >100 µg/mL | Minimal inhibitory concentration (MIC) [7]: >100 µg/mL | Minimal inhibitory concentration (MIC) [8]: >100 µg/mL | Minimal inhibitory concentration (MIC) [9]: >100 µg/mL | Minimal inhibitory concentration (MIC) [10]: 3.13 µg/mL | Minimal inhibitory concentration (MIC) [11]: 6.25 µg/mL | Minimal inhibitory concentration (MIC) [12]: 0.78 µg/mL | Minimal inhibitory concentration (MIC) [13]: 6.25 µg/mL | Minimal inhibitory concentration (MIC) [14]: 50.0 µg/mL | Minimal inhibitory concentration (MIC) [15]: 25.0 µg/mL

Structure (SMILES): Cc1ccc(C=C(F)OCC2COC(Cn3ccnc3)(c3ccc(F)cc3F)O2)cc1C (mixture of isomers) [Ex. 40]
Minimal inhibitory concentration (MIC) [1]: 12.5 µg/mL | Minimal inhibitory concentration (MIC) [2]: 25.0 µg/mL | Minimal inhibitory concentration (MIC) [3]: 12.5 µg/mL | Minimal inhibitory concentration (MIC) [4]: 12.5 µg/mL | Minimal inhibitory concentration (MIC) [5]: 0.78 µg/mL | Minimal inhibitory concentration (MIC) [6]: 25.0 µg/mL | Minimal inhibitory concentration (MIC) [7]: 25.0 µg/mL | Minimal inhibitory concentration (MIC) [8]: 25.0 µg/mL | Minimal inhibitory concentration (MIC) [9]: 25.0 µg/mL | Minimal inhibitory concentration (MIC) [10]: 1.56 µg/mL | Minimal inhibitory concentration (MIC) [11]: 1.56 µg/mL | Minimal inhibitory concentration (MIC) [12]: 0.20 µg/mL | Minimal inhibitory concentration (MIC) [13]: 6.25 µg/mL | Minimal inhibitory concentration (MIC) [14]: 6.25 µg/mL | Minimal inhibitory concentration (MIC) [15]: 1.56 µg/mL

Structure (SMILES): Cc1cc(C)cc(C=C(F)OCC2COC(Cn3ccnc3)(c3ccc(F)cc3F)O2)c1 (mixture of isomers) [Ex. 41]
Minimal inhibitory concentration (MIC) [1]: 6.25 µg/mL | Minimal inhibitory concentration (MIC) [2]: 25.0 µg/mL | Minimal inhibitory concentration (MIC) [3]: 12.5 µg/mL | Minimal inhibitory concentration (MIC) [4]: 12.5 µg/mL | Minimal inhibitory concentration (MIC) [5]: 0.78 µg/mL | Minimal inhibitory concentration (MIC) [6]: 50.0 µg/mL | Minimal inhibitory concentration (MIC) [7]: 100 µg/mL | Minimal inhibitory concentration (MIC) [8]: 25.0 µg/mL | Minimal inhibitory concentration (MIC) [9]: 25.0 µg/mL | Minimal inhibitory concentration (MIC) [10]: 3.13 µg/mL | Minimal inhibitory concentration (MIC) [11]: 3.13 µg/mL | Minimal inhibitory concentration (MIC) [12]: 0.78 µg/mL | Minimal inhibitory concentration (MIC) [13]: 6.25 µg/mL | Minimal inhibitory concentration (MIC) [14]: 6.25 µg/mL | Minimal inhibitory concentration (MIC) [15]: 3.13 µg/mL

Structure (SMILES): Cc1cc(C)c(C=C(F)OCC2COC(Cn3ccnc3)(c3ccc(F)cc3F)O2)cc1C (mixture of isomers) [Ex. 42]
Minimal inhibitory concentration (MIC) [1]: 12.5 µg/mL | Minimal inhibitory concentration (MIC) [2]: 100 µg/mL | Minimal inhibitory concentration (MIC) [3]: 12.5 µg/mL | Minimal inhibitory concentration (MIC) [4]: 12.5 µg/mL | Minimal inhibitory concentration (MIC) [5]: 0.78 µg/mL | Minimal inhibitory concentration (MIC) [6]: 25.0 µg/mL | Minimal inhibitory concentration (MIC) [7]: 25.0 µg/mL | Minimal inhibitory concentration (MIC) [8]: 25.0 µg/mL | Minimal inhibitory concentration (MIC) [9]: 25.0 µg/mL | Minimal inhibitory concentration (MIC) [10]: 0.78 µg/mL | Minimal inhibitory concentration (MIC) [11]: 0.78 µg/mL | Minimal inhibitory concentration (MIC) [12]: ≦0.10 μg/ml | Minimal inhibitory concentration (MIC) [13]: 6.25 µg/mL | Minimal inhibitory concentration (MIC) [14]: 6.25 µg/mL | Minimal inhibitory concentration (MIC) [15]: 1.56 µg/mL

The next lines start with the values.

Minimal inhibitory concentration (MIC) [1]: 12.5 µg/mL | Minimal inhibitory concentration (MIC) [2]: 50.0 µg/mL | Minimal inhibitory concentration (MIC) [3]: 12.5 µg/mL | Minimal inhibitory concentration (MIC) [4]: 12.5 µg/mL | Minimal inhibitory concentration (MIC) [5]: 0.39 µg/mL | Minimal inhibitory concentration (MIC) [6]: 25.0 µg/mL | Minimal inhibitory concentration (MIC) [7]: 12.5 µg/mL | Minimal inhibitory concentration (MIC) [8]: 12.5 µg/mL | Minimal inhibitory concentration (MIC) [9]: 25.0 µg/mL | Minimal inhibitory concentration (MIC) [10]: 1.56 µg/mL | Minimal inhibitory concentration (MIC) [11]: 1.56 µg/mL | Minimal inhibitory concentration (MIC) [12]: 0.20 µg/mL | Minimal inhibitory concentration (MIC) [13]: 6.25 µg/mL | Minimal inhibitory concentration (MIC) [14]: 6.25 µg/mL | Minimal inhibitory concentration (MIC) [15]: 1.56 µg/mL
Structure (SMILES): Cc1ccc(C=C(F)OCC2COC(Cn3ccnc3)(c3ccc(F)cc3F)O2)cc1 (mixture of isomers) [Ex. 38]

Minimal inhibitory concentration (MIC) [1]: 12.5 µg/mL | Minimal inhibitory concentration (MIC) [2]: 50.0 µg/mL | Minimal inhibitory concentration (MIC) [3]: 12.5 µg/mL | Minimal inhibitory concentration (MIC) [4]: 12.5 µg/mL | Minimal inhibitory concentration (MIC) [5]: 0.39 µg/mL | Minimal inhibitory concentration (MIC) [6]: 25.0 µg/mL | Minimal inhibitory concentration (MIC) [7]: 12.5 µg/mL | Minimal inhibitory concentration (MIC) [8]: 12.5 µg/mL | Minimal inhibitory concentration (MIC) [9]: 25.0 µg/mL | Minimal inhibitory concentration (MIC) [10]: 1.56 µg/mL | Minimal inhibitory concentration (MIC) [11]: 1.56 µg/mL | Minimal inhibitory concentration (MIC) [12]: 0.20 µg/mL | Minimal inhibitory concentration (MIC) [13]: 6.25 µg/mL | Minimal inhibitory concentration (MIC) [14]: 6.25 µg/mL | Minimal inhibitory concentration (MIC) [15]: 1.56 µg/mL
Structure (SMILES): CCc1ccc(C=C(F)OCC2COC(Cn3ccnc3)(c3ccc(F)cc3F)O2)cc1 (mixture of isomers) [Ex. 39]

Minimal inhibitory concentration (MIC) [1]: 12.5 µg/mL | Minimal inhibitory concentration (MIC) [2]: >100 µg/mL | Minimal inhibitory concentration (MIC) [3]: 25.0 µg/mL | Minimal inhibitory concentration (MIC) [4]: 25.0 µg/mL | Minimal inhibitory concentration (MIC) [5]: 0.78 µg/mL | Minimal inhibitory concentration (MIC) [6]: 12.5 µg/mL | Minimal inhibitory concentration (MIC) [7]: 12.5 µg/mL | Minimal inhibitory concentration (MIC) [8]: 6.25 µg/mL | Minimal inhibitory concentration (MIC) [9]: 50.0 µg/mL | Minimal inhibitory concentration (MIC) [10]: 1.56 µg/mL | Minimal inhibitory concentration (MIC) [11]: 1.56 µg/mL | Minimal inhibitory concentration (MIC) [12]: 0.39 µg/mL | Minimal inhibitory concentration (MIC) [13]: 6.25 µg/mL | Minimal inhibitory concentration (MIC) [14]: 6.25 µg/mL | Minimal inhibitory concentration (MIC) [15]: 1.56 µg/mL
Structure (SMILES): COc1cccc(C=C(F)OCC2COC(Cn3ccnc3)(c3ccc(F)cc3F)O2)c1 (mixture of isomers) [Ex. 43]

Minimal inhibitory concentration (MIC) [1]: 12.5 µg/mL | Minimal inhibitory concentration (MIC) [2]: >100 µg/mL | Minimal inhibitory concentration (MIC) [3]: 25.0 µg/mL | Minimal inhibitory concentration (MIC) [4]: 25.0 µg/mL | Minimal inhibitory concentration (MIC) [5]: 0.39 µg/mL | Minimal inhibitory concentration (MIC) [6]: 12.5 µg/mL | Minimal inhibitory concentration (MIC) [7]: 12.5 µg/mL | Minimal inhibitory concentration (MIC) [8]: 6.25 µg/mL | Minimal inhibitory concentration (MIC) [9]: 50.0 µg/mL | Minimal inhibitory concentration (MIC) [10]: 1.56 µg/mL | Minimal inhibitory concentration (MIC) [11]: 1.56 µg/mL | Minimal inhibitory concentration (MIC) [12]: 0.39 µg/mL | Minimal inhibitory concentration (MIC) [13]: 6.25 µg/mL | Minimal inhibitory concentration (MIC) [14]: 6.25 µg/mL | Minimal inhibitory concentration (MIC) [15]: 1.56 µg/mL
Structure (SMILES): CCOc1ccc(C=C(F)OCC2COC(Cn3ccnc3)(c3ccc(F)cc3F)O2)cc1 (mixture of isomers) [Ex. 44]
